Measured values reported in ChEMBL document CHEMBL1909046, “DrugMatrix in vitro pharmacology data”.

How the values were obtained:
[1] = biological target: C-C chemokine receptor type 2 (Homo sapiens, UniProt P41597); type: cell membranes, CHO-K1, Membrane; conditions: cho-k1; note: in other assays of this panel Not Active means under 50% inhibition at 10 µM
[2] = biological target: T1, 3-hydroxy-3-methylglutaryl-coenzyme A reductase (Homo sapiens, UniProt P04035); design: species or system Escherichia coli;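 note: enzyme inhibition assay of HMG-CoA reductase using radiolabeled [14C]HMG-CoA as substrate; in other assays of this panel Not Active means under 50% inhibition at 10 µM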
T1 sequence (P04035 whole entry): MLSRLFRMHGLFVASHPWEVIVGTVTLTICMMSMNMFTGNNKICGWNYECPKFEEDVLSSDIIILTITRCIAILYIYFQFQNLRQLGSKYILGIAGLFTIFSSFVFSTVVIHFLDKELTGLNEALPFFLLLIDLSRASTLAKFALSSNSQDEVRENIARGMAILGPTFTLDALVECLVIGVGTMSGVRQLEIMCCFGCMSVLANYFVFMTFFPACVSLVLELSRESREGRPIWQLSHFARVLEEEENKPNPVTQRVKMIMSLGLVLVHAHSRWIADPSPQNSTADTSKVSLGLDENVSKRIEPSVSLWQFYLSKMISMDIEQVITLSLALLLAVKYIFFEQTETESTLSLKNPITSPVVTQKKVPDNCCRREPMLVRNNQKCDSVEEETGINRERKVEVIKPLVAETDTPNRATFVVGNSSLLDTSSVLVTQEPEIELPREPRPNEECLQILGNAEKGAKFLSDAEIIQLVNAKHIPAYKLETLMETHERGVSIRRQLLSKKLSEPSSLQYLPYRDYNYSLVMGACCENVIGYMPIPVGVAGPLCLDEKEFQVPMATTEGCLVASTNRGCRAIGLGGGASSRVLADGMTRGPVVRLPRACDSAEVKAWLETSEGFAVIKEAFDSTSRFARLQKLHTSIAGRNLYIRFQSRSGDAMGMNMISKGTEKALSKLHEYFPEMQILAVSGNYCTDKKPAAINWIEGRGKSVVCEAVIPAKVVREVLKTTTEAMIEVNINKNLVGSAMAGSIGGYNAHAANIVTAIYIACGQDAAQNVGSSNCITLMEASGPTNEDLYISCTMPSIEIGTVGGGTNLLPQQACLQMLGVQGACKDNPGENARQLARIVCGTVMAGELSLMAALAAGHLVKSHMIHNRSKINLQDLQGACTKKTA

[3] = DRUGMATRIX: Interleukin IL-1 radioligand binding (ligand: [125I] interleukin 1beta); type: cell membranes, Membrane; conditions: nih3t3; Not Active = under 50% inhibition at 10 µM
[4] = DRUGMATRIX: Nicotinic Acetylcholine radioligand binding (ligand: [125I] Epibatidine); type: cell membranes, Membrane; conditions: imr-32; Not Active = under 50% inhibition at 10 µM
[5] = biological target: T2, Angiotensin-converting enzyme (Oryctolagus cuniculus, UniProt P12822); assay: biochemical; type: tissue-based, Lung;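 note: enzymatic inhibition of angiotensin-converting enzyme measured with FAPGG as the substrate; in other assays of this panel Not Active means under 50% inhibition at 10 µM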
T2 sequence (P12822 whole entry): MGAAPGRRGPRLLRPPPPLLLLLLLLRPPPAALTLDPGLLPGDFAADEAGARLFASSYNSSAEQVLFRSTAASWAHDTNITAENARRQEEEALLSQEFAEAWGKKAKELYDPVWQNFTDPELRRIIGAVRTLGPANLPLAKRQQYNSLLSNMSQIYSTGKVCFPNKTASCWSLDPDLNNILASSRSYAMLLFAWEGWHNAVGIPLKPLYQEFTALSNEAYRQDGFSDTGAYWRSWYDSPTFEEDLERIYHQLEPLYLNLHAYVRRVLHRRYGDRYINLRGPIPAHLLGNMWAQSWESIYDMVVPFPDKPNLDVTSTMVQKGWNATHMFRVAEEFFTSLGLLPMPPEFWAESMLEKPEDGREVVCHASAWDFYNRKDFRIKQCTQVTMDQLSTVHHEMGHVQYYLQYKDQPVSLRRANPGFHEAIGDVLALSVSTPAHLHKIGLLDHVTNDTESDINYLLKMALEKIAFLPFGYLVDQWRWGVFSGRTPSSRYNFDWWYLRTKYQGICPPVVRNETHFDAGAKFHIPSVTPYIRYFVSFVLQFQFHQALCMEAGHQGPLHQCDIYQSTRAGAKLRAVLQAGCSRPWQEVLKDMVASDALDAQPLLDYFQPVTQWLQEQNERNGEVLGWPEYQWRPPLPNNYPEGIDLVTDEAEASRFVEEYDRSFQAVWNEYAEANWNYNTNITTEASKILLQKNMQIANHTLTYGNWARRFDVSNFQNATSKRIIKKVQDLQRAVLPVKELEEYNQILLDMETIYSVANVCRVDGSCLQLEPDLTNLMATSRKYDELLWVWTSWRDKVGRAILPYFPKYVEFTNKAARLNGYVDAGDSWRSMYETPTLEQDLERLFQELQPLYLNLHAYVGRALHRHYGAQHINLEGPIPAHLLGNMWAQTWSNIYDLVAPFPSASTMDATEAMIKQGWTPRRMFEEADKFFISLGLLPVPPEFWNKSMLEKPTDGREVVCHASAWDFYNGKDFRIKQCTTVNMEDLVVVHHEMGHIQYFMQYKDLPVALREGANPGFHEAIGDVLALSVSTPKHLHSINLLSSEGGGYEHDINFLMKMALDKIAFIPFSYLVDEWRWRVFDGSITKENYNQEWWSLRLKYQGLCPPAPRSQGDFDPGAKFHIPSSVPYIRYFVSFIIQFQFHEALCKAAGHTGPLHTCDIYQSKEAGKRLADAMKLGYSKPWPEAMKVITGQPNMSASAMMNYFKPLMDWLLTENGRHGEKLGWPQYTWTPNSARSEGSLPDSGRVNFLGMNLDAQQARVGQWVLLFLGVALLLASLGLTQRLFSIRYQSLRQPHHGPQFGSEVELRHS

Cytochrome P450 2E1 = Cytochrome P450 2E1 (Homo sapiens, UniProt P05181); conditions: bti-tn-5b1-4; note: in other assays of this panel Not Active means under 50% inhibition at 10 µM
Estrogen receptor beta = Estrogen receptor beta (Homo sapiens, UniProt Q92731); conditions: sf9; note: in other assays of this panel Not Active means under 50% inhibition at 10 µM
Sequence of Estrogen receptor beta (Q92731 whole entry): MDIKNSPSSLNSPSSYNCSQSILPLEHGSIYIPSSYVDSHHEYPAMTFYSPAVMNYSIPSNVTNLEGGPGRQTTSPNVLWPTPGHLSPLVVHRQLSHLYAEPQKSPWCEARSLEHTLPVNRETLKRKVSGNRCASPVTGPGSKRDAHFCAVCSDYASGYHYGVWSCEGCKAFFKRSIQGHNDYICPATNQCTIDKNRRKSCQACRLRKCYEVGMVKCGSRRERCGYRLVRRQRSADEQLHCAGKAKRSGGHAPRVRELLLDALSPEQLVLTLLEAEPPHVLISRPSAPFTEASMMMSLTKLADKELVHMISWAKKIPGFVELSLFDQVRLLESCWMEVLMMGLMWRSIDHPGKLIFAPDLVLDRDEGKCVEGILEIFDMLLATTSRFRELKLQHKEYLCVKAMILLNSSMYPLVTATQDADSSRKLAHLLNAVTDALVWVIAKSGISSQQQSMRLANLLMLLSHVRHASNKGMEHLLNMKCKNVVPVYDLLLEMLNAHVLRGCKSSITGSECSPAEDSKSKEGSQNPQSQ

Sequence of C-C chemokine receptor type 2 (P41597 whole entry): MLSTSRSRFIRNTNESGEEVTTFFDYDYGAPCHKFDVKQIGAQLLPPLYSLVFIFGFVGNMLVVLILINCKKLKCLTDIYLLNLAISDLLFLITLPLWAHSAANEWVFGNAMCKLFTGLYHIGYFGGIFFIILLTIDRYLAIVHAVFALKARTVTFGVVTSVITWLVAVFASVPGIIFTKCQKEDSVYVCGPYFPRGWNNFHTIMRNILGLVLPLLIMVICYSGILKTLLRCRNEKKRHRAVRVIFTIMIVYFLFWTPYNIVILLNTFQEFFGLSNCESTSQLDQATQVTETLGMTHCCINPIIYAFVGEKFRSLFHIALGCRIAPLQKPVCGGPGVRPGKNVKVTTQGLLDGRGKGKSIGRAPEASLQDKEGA
Sequence of Cytochrome P450 2E1 (P05181 whole entry): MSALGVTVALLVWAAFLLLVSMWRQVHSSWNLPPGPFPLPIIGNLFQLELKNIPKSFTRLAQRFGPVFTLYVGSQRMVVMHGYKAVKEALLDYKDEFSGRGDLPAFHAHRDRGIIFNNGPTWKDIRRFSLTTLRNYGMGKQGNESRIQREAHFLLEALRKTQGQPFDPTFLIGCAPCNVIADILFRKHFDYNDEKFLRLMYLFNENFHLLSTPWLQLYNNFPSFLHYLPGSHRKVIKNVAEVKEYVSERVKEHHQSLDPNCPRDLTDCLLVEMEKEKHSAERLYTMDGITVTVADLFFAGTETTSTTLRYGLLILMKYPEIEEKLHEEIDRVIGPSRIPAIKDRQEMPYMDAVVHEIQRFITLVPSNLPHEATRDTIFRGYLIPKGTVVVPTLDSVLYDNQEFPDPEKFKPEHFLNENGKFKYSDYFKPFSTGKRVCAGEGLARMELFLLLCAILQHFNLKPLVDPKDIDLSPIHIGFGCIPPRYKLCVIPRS

O=C1CN(/N=C/c2ccc([N+](=O)[O-])o2)C(=O)N1 [NITROFURANTOIN]
Not Active: IC50 [1] | IC50 [2] | IC50 [3] | Ki [3] | IC50 [4] | Ki [4] | IC50 [5] | IC50 (Cytochrome P450 2E1) | Ki (Cytochrome P450 2E1) | IC50 (Estrogen receptor beta)

c1ccc2c(c1)Nc1ccccc1S2 [PHENOTHIAZINE]
Not Active: IC50 [1] | IC50 [2] | IC50 [3] | Ki [3] | IC50 [4] | Ki [4] | IC50 [5] | IC50 (Cytochrome P450 2E1) | Ki (Cytochrome P450 2E1) | IC50 (Estrogen receptor beta)

CC(CN1c2ccccc2Sc2ccccc21)N(C)C (centres undefined) [PROMETHAZINE]
Not Active: IC50 [1] | IC50 [2] | IC50 [3] | Ki [3] | IC50 [4] | Ki [4] | IC50 [5] | IC50 (Cytochrome P450 2E1) | Ki (Cytochrome P450 2E1) | IC50 (Estrogen receptor beta)

c1ccc(Cn2ccnc2)cc1
Not Active: IC50 [1] | IC50 [2] | IC50 [3] | Ki [3] | IC50 [4] | Ki [4] | IC50 [5] | IC50 (Cytochrome P450 2E1) | Ki (Cytochrome P450 2E1) | IC50 (Estrogen receptor beta)

CC(C)Cn1cnc2c(N)nc3ccccc3c21 [IMIQUIMOD]
Not Active: IC50 [1] | IC50 [2] | IC50 [3] | Ki [3] | IC50 [4] | Ki [4] | IC50 [5] | IC50 (Cytochrome P450 2E1) | Ki (Cytochrome P450 2E1) | IC50 (Estrogen receptor beta)

OC[C@H]1OC2C3[C@@H](CO)OC(O[C@H]4[C@H](O)[C@@H](O)[C@@H](O[C@H]5[C@H](O)[C@@H](O)[C@@H](O[C@H]6[C@H](O)[C@@H](O)[C@@H](O[C@H]7[C@H](O)[C@@H](O)[C@@H](O[C@H]8[C@H](O)[C@@H](O)[C@@H](O[C@H]9[C@H](O)[C@@H](O)C(OC1[C@H](O)[C@H]2O)O[C@@H]9CO)O[C@@H]8CO)O[C@@H]7CO)O[C@@H]6CO)O[C@@H]5CO)O[C@@H]4CO)[C@H](O)[C@H]3O
Not Active: IC50 [1] | IC50 [2] | IC50 [3] | Ki [3] | IC50 [4] | Ki [4] | IC50 [5] | IC50 (Cytochrome P450 2E1) | Ki (Cytochrome P450 2E1) | IC50 (Estrogen receptor beta)

COc1cc(/C=C/C(=O)O)ccc1O [FERULATE]
Not Active: IC50 [1] | IC50 [2] | IC50 [3] | Ki [3] | IC50 [4] | Ki [4] | IC50 [5] | IC50 (Cytochrome P450 2E1) | Ki (Cytochrome P450 2E1) | IC50 (Estrogen receptor beta)

CCN1C[C@]2(COC)[C@H](O)C[C@H](OC)[C@@]34[C@@H]5C[C@@]6(O)[C@H](OC(=O)c7ccccc7)[C@@H]5[C@@](OC(C)=O)([C@@H]([C@H](OC)[C@H]23)[C@@H]14)[C@@H](O)[C@@H]6OC [ACONITINE]
Not Active: IC50 [1] | IC50 [2] | IC50 [3] | Ki [3] | IC50 [4] | Ki [4] | IC50 [5] | IC50 (Cytochrome P450 2E1) | Ki (Cytochrome P450 2E1) | IC50 (Estrogen receptor beta)

CO[C@H]1O[C@@H]2O[C@@]3(C)CC[C@H]4[C@H](C)CC[C@@H]([C@H]1C)[C@@]24OO3
Not Active: IC50 [1] | IC50 [2] | IC50 [3] | Ki [3] | IC50 [4] | Ki [4] | IC50 [5] | IC50 (Cytochrome P450 2E1) | Ki (Cytochrome P450 2E1) | IC50 (Estrogen receptor beta)

C[C@@H]1[C@H](O)[C@@H](C)/C=C/C=C/C=C/C=C/C=C/C=C/C=C/[C@H](O[C@@H]2O[C@H](C)[C@@H](O)[C@H](N)[C@@H]2O)C[C@@H]2O[C@](O)(C[C@@H](O)C[C@@H](O)[C@H](O)CC[C@@H](O)C[C@@H](O)CC(=O)O[C@H]1C)C[C@H](O)[C@H]2C(=O)O [AMPHOTERICIN B]
Not Active: IC50 [1] | IC50 [2] | IC50 [3] | Ki [3] | IC50 [4] | Ki [4] | IC50 [5] | IC50 (Cytochrome P450 2E1) | Ki (Cytochrome P450 2E1) | IC50 (Estrogen receptor beta)

Oc1ncnc2[nH]ncc12 [ALLOPURINOL]
Not Active: IC50 [1] | IC50 [2] | IC50 [3] | Ki [3] | IC50 [4] | Ki [4] | IC50 [5] | IC50 (Cytochrome P450 2E1) | Ki (Cytochrome P450 2E1) | IC50 (Estrogen receptor beta)

COc1cc([C@@H]2c3cc4c(cc3[C@H](O)[C@H]3COC(=O)[C@H]23)OCO4)cc(OC)c1OC [PODOFILOX]
Not Active: IC50 [1] | IC50 [2] | IC50 [3] | Ki [3] | IC50 [4] | Ki [4] | IC50 [5] | IC50 (Cytochrome P450 2E1) | Ki (Cytochrome P450 2E1) | IC50 (Estrogen receptor beta)

NC(=O)CN1CCCC1=O
Not Active: IC50 [1] | IC50 [2] | IC50 [3] | Ki [3] | IC50 [4] | Ki [4] | IC50 [5] | IC50 (Cytochrome P450 2E1) | Ki (Cytochrome P450 2E1) | IC50 (Estrogen receptor beta)

POVIDONE
Not Active: IC50 [1] | Ki [1] | IC50 [2] | Ki [2] | IC50 [3] | Ki [3] | IC50 [4] | Ki [4] | IC50 [5] | Ki [5] | IC50 (Cytochrome P450 2E1) | Ki (Cytochrome P450 2E1) | IC50 (Estrogen receptor beta) | Ki (Estrogen receptor beta)

CN(Cc1cc(Br)cc(Br)c1N)C1CCCCC1 [BROMHEXINE]
Not Active: IC50 [1] | IC50 [2] | IC50 [3] | Ki [3] | IC50 [4] | Ki [4] | IC50 [5] | IC50 (Cytochrome P450 2E1) | Ki (Cytochrome P450 2E1) | IC50 (Estrogen receptor beta)

C[C@]12CC[C@@H](O)C[C@@H]1CC[C@@H]1[C@@H]2CC[C@]2(C)C(=O)CC[C@@H]12 [ANDROSTERONE]
Not Active: IC50 [1] | IC50 [2] | IC50 [3] | Ki [3] | IC50 [4] | Ki [4] | IC50 [5] | IC50 (Cytochrome P450 2E1) | Ki (Cytochrome P450 2E1) | IC50 (Estrogen receptor beta)

CC(=O)Nc1ccc2c(c1)Cc1ccccc1-2 [2-ACETYLAMINOFLUORENE]
Not Active: IC50 [1] | IC50 [2] | IC50 [3] | Ki [3] | IC50 [4] | Ki [4] | IC50 [5] | IC50 (Cytochrome P450 2E1) | Ki (Cytochrome P450 2E1) | IC50 (Estrogen receptor beta)
